Measurements published in US20080176261A1, “Colorimetric Substrate and Methods for Detecting Poly(ADP-ribose) Polymerase Activity including PARP Enzymes PARP-1, VPARP, and Tankyrase-1” (THE BOARD OF TRUSTEES OF THE UNIVERSITY OF ILLINOIS, priority 2007, published 2008).
Where two headings read alike, the source gives them in different places.

Key:
[1] = molecular target: T1, PARP-1 (Homo sapiens, UniProt P09874); design: purchased Trevigen; settings: PARP-1 literature, natural β-NAD+ substrate; cited from earlier work
T1 sequence (P09874 whole entry): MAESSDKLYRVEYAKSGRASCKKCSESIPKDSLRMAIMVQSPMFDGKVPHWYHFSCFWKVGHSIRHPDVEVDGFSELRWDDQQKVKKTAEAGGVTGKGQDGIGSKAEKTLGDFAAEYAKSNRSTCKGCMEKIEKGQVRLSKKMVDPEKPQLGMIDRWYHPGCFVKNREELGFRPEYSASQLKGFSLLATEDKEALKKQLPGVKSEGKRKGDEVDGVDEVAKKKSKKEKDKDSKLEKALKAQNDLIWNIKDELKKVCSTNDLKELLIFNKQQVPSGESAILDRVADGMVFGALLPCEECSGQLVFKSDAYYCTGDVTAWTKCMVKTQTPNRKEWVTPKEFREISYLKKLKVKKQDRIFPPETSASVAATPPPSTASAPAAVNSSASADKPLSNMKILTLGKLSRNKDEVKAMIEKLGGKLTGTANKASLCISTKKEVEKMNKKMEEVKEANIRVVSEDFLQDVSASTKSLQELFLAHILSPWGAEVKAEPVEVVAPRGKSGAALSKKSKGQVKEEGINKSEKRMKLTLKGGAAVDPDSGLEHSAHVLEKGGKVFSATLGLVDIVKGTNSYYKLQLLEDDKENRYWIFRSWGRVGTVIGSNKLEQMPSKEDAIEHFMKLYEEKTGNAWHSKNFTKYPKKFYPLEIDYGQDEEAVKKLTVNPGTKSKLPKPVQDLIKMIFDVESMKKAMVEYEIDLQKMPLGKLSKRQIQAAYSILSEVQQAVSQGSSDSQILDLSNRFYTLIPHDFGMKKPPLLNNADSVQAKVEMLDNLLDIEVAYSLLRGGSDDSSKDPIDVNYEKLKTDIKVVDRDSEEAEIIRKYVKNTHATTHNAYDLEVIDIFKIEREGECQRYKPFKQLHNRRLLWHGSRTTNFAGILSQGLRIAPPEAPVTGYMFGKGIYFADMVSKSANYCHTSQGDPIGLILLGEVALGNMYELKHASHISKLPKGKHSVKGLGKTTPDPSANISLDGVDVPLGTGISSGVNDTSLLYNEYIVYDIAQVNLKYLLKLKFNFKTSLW

[2] = molecular target: T2, tankyrase-1 (Homo sapiens, UniProt O95271); settings: tankyrase-1 literature, β-NAD+ as substrate; cited from earlier work
T2 sequence (O95271 1-1327): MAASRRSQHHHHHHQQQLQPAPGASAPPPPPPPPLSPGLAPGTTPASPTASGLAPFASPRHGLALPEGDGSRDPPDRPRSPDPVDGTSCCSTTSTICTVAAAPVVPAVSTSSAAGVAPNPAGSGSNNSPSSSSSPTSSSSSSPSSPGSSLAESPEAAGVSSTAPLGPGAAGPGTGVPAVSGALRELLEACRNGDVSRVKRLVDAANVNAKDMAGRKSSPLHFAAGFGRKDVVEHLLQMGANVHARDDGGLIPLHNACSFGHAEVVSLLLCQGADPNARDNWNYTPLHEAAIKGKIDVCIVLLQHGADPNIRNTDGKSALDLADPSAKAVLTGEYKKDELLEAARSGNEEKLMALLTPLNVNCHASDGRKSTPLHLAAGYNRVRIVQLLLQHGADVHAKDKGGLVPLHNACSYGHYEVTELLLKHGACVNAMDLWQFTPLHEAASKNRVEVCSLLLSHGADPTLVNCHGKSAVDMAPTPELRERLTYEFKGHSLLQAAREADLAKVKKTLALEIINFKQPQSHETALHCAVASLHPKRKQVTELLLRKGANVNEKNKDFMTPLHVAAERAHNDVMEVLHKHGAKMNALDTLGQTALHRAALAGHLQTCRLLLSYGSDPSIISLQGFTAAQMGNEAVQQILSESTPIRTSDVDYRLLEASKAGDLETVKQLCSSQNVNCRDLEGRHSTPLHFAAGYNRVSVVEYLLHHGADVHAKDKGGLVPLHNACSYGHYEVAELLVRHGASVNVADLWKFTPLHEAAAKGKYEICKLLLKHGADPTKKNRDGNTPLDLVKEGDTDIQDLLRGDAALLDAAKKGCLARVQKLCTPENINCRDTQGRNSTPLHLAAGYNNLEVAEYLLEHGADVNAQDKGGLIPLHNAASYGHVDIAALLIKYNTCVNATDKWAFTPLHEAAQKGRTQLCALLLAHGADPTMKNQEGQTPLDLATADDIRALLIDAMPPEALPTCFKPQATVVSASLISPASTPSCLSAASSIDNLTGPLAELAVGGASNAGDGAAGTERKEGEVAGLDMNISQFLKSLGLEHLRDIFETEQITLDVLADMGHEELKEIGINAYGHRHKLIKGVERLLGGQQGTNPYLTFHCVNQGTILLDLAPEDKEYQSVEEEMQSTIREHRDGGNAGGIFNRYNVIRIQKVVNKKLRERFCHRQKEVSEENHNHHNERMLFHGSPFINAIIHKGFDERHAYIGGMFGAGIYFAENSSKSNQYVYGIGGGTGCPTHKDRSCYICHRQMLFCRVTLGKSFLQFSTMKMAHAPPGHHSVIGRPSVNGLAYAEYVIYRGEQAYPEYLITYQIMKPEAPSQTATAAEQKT

[3] = system: T3, Nc1ncnc2c1ncn2[C@@H]1O[C@H](COP(=O)(O)OP(=O)(O)OC[C@H]2O[C@@H](Oc3ccc([N+](=O)[O-])cc3)C(O)C2O)C(O)C1O; assay: Continuous colorimetric PARP kinetic assay with ADP-ribose-pNP, PARP-1; format: biochemical; settings: other: PARP-1 activated with DNase digested DNA; substrate ADP-ribose-pNP; 405 nm; pH 8.0
T3 construct: purchased Trevigen
Method: (§1) With the calorimetric substrate ADP-ribose-pNP in hand, a continuous calorimetric assay for PARP activity was developed and the kinetic parameters for three PARP isozymes were determined. In a 96-well plate, a range of concentrations of ADP-ribose-pNP in PARP assay buffer were incubated with either PARP-1 (DNase digested DNA was added to activate PARP-1), tankyrase-1 (refers to “active domain,” see Supporting Information), or VPARP (also refers to the “active domain”), and the optical density at 405 nm was measured every 60 seconds over a 2 hour time period. Change in absorbance was assessed in triplicate, and blanks containing 0 to 700 μM ADP-ribose-pNP in PARP assay buffer were also measured over the same time period. The absorbance of a range of p-nitrophenol concentrations was determined at 405 nm, and the slope of this calibration curve (see Supporting Information) was used to convert the absorbencies to moles of product generated; in this way the kinetic parameters for PARP-1, tankyrase-1, and VPARP were calculated (see Table 1 and FIG. 2).
Preparation of damaged DNA for PARP-1. 500 μL of Herringsperm DNA (10 mg/ml) was added to 100 mL DNase buffer (400 mM Tris-HCl, 100 mM MgSO4, and 10 mM CaCl2, pH 8.0), along with 50 μL of DNase (1 unit/mL). This solution was first incubated at 37° C. for 1 minute and then heated at 90° C. for 20 minutes to inactivate the DNase. Damaged DNA was used without any further purification.
Kinetics of PARP-1. A 160 μL volume of PARP-1 (0.45 mg/mL) was premixed with 262.4 μL of the damaged herringsperm DNA and 2777.6 μl of PARP assay buffer. This mixture (known as activated PARP in assay buffer) was allowed to equilibrate on ice for 4 hours. The ADP-ribose-pNP colorimetric substrate was diluted from a 5000 μM stock in PARP assay buffer directly into the wells of a 96 well plate. […] The plate was then read on a SpectraMax plus UV/Vis plate reader (Molecular Devices), at 405 nm for 2 hours, reading once every minute with mixing between reads.
(§2) Data analysis. […] Graphs were analyzed using Table Curve 2D.

[4] = molecular target: T4, tankyrase-1 (Homo sapiens, UniProt O95271); assay: Continuous colorimetric PARP kinetic assay with ADP-ribose-pNP, tankyrase-1 active domain; format: biochemical
T4 construct: The SAM and PARP domain of tankyrase was subcloned into pGEX-5X-1; made in house; host or cells: E. coli Rosetta
T4 sequence (O95271 1030-1327): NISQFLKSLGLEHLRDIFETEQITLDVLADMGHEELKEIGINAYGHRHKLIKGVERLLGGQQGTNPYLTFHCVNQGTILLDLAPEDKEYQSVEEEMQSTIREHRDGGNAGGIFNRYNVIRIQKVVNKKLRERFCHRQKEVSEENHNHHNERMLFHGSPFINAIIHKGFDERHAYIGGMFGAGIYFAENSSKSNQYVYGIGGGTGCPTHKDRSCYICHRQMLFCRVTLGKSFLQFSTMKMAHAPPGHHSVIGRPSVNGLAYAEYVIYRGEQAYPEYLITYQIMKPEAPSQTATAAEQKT
Method: as §1
Kinetics of VPARP and Tankyrase-1. The ADP-ribose-pNP colorimetric substrate was diluted from a 10 mM stock in PARP assay buffer to 1142.9 μM. From this stock, dilutions into PARP assay buffer were made in 15×1.7 mL tubes so that the volume was 490 μL. This was enough to perform the experiment in triplicate, with additional wells (no protein) to serve as blanks for each substrate concentration. The concentration of substrate in each tube was made such that 70 μL from each tube could be added to the wells of a 96 well plate. When each well was brought to the final volume of 100 μL, the desired final concentration was reached. See FIG. 2B and FIG. 5B for tank-ad and VPARP substrate concentrations, respectively. Concentrations ranged from 0 to 700 μM with a finer distribution at lower substrate concentrations.
The plate was divided in half with protein added to half the wells and the other half serving as blanks containing only PARP assay buffer and substrate. After adding 70 μL of substrate from each tube to 3 wells on the protein side or 3 wells of the blank side, 30 μL of PARP assay buffer was added to all the wells of the blank side. Next, 30 μL of the enzyme was added to each of the wells on the protein half of the plate to initiate the reaction, with a final concentration of tankyrase per well of 21.8 μM and the final concentration of VPARP per well of 19.8 μM. The plate was then read on a SpectraMax plus 384 UV/Vis plate reader (Molecular Devices), at 405 nm for 2 hours with observations performed once every minute. Mixing was conducted between observations.
as §2

[5] = molecular target: T1, PARP-1; assay: Continuous colorimetric PARP kinetic assay with ADP-ribose-pNP, PARP-1; format: biochemical; design: purchased Trevigen
Method: as §1
Preparation of damaged DNA for PARP-1. […]
Kinetics of PARP-1. […] The plate was then read on a SpectraMax plus UV/Vis plate reader (Molecular Devices), at 405 nm for 2 hours, reading once every minute with mixing between reads.
as §2

[6] = molecular target: T5, VPARP (Homo sapiens, UniProt Q9UKK3); assay: Continuous colorimetric PARP kinetic assay with ADP-ribose-pNP, VPARP active domain; format: biochemical; settings: substrate ADP-ribose-pNP, 405 nm
T5 construct: The plasmid with the catalytic domain of VPARP, pET28b-p193cat; made in house; host or cells: E. coli Rosetta
T5 sequence (Q9UKK3 369-573 limits assumed): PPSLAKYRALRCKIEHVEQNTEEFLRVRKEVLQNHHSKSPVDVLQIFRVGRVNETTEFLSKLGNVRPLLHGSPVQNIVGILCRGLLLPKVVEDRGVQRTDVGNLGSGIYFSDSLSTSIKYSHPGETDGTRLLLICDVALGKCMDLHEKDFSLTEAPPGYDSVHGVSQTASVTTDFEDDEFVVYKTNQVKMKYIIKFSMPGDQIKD
Method: (§3) With the calorimetric substrate ADP-ribose-pNP in hand, a continuous calorimetric assay for PARP activity was developed and the kinetic parameters for three PARP isozymes were determined. In a 96-well plate, a range of concentrations of ADP-ribose-pNP in PARP assay buffer were incubated with either PARP-1 (DNase digested DNA was added to activate PARP-1), tankyrase-1 (refers to “active domain,” see Supporting Information), or VPARP (also refers to the “active domain”), and the optical density at 405 nm was measured every 60 seconds over a 2 hour time period. Change in absorbance was assessed in triplicate, and blanks containing 0 to 700 μM ADP-ribose-pNP in PARP assay buffer were also measured over the same time period. The absorbance of a range of p-nitrophenol concentrations was determined at 405 nm, and the slope of this calibration curve (see Supporting Information) was used to convert the absorbencies to moles of product generated; in this way the kinetic parameters for PARP-1, tankyrase-1, and VPARP were calculated (see Table 1 and FIG. 2). […]
(§4) The plate was divided in half with protein added to half the wells and the other half serving as blanks containing only PARP assay buffer and substrate. […] The plate was then read on a SpectraMax plus 384 UV/Vis plate reader (Molecular Devices), at 405 nm for 2 hours with observations performed once every minute. […]

[7] = molecular target: bovine serum albumin (Bos taurus, UniProt P02769); assay: Control experiment with BSA (non-specific substrate cleavage); format: biochemical; settings: 20 μM BSA, monitored 2 hours
Sequence of bovine serum albumin (P02769 25-607): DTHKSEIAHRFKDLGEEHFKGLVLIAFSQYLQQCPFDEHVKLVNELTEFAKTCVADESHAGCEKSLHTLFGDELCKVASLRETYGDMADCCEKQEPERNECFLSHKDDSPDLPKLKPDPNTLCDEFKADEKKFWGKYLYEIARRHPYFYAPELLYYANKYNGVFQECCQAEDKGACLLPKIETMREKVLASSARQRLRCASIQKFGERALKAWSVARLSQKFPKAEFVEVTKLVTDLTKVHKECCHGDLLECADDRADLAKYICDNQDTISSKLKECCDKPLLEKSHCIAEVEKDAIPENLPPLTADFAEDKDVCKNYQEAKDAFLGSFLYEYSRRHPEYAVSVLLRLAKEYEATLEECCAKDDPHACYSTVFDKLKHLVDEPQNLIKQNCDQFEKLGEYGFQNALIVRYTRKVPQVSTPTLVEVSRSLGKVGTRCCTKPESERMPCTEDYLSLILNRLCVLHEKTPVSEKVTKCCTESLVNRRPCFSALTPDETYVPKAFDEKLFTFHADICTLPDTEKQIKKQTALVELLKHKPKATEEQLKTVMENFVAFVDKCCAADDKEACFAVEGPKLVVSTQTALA
Method: While exact kinetic parameters for PARP-1 can vary with the assay used, for PARP-1 the KM value with ADP-ribose-pNP is consistent with that of the natural β-NAD^+ substrate, while the Vmax is approximately 100 fold lower with the calorimetric substrate (see Table 1). […] To our knowledge, no data is available on the kinetic parameters of VPARP with β-NAD^+.
Control experiment with BSA. To determine that substrate cleavage is specific to the PARP family of enzymes, 16 μL of BSA was added to 81.5 μL of PARP assay buffer in a 96 well plate so that the final concentration was 20 μM in protein. The experiment was performed in triplicate along with controls that contained PARP assay buffer only. To both the wells containing only buffer or buffer and BSA, 2.5 μL of a 10 mM stock of the substrate was added to start the reaction. The plate was monitored at 405 nm for 2 hours.

[8] = substrate: Nc1ncnc2c1ncn2[C@@H]1O[C@H](COP(=O)(O)OP(=O)(O)OC[C@H]2O[C@@H](Oc3ccc([N+](=O)[O-])cc3)C(O)C2O)C(O)C1O; assay: Continuous colorimetric PARP kinetic assay with ADP-ribose-pNP, VPARP active domain; format: biochemical; settings: other: VPARP active domain; substrate ADP-ribose-pNP; 405 nm
Method: as §3, §4

[9] = tankyrase-1, versus literature values
[10] = tankyrase-1 active domain, substrate ADP-ribose-pNP, 405 nm

NC(=O)c1ccc[n+]([C@@H]2O[C@H](COP(=O)([O-])OP(=O)(O)OC[C@H]3O[C@@H](n4cnc5c(N)ncnc54)[C@H](O)[C@@H]3O)[C@@H](O)[C@H]2O)c1 [β-NAD^+, nicotinamide adenine dinucleotide]
Km [1]: 59 to 278 µM
Vmax [1]: 0.2 to 2.4 µmol/min/mg
kcat [1]: 0.41 s⁻¹
Km [2]: 1500 µM
kcat [2]: 0.71 s⁻¹

PARP-1 (Homo sapiens)
Km [3]: 151 µM
Vmax [3]: 0.0013 µmol/min/mg
kcat [3]: 0.025 s⁻¹

Nc1ncnc2c1ncn2[C@@H]1O[C@H](COP(=O)(O)OP(=O)(O)OC[C@H]2O[C@@H](Oc3ccc([N+](=O)[O-])cc3)C(O)C2O)C(O)C1O (stereo partly shown) [ADP-ribose-pNP]
KM fold lower than literature value with β-NAD+ as substrate [4, 9]: approximately 18 fold
Vmax compared to literature values with β-NAD+ as substrate [4, 9]: significantly lower
Km [4, 10]: 82 µM
Vmax [4, 10]: 1.81e-05 µmol/min/mg
kcat [4, 10]: 1.88e-05 s⁻¹
Vmax fold lower with colorimetric substrate than with natural β-NAD+ substrate ([5]; PARP-1, versus literature values): approximately 100 fold
Vmax ([5]; PARP-1 activated with DNase digested DNA, substrate ADP-ribose-pNP, 405 nm): 0.0013 µmol/min/mg
Vmax [6]: 2.03e-06 µmol/min/mg
signal at 405 nm on incubation with bovine serum albumin [7]: no signal

B1: VPARP (Homo sapiens) (protein)
chain: PPSLAKYRALRCKIEHVEQNTEEFLRVRKEVLQNHHSKSPVDVLQIFRVGRVNETTEFLSKLGNVRPLLHGSPVQNIVGILCRGLLLPKVVEDRGVQRTDVGNLGSGIYFSDSLSTSIKYSHPGETDGTRLLLICDVALGKCMDLHEKDFSLTEAPPGYDSVHGVSQTASVTTDFEDDEFVVYKTNQVKMKYIIKFSMPGDQIKD
notes: The plasmid with the catalytic domain of VPARP, pET28b-p193cat; made in house; host or cells: E. coli Rosetta
Km [8]: 46 µM
Vmax [8]: 2.03e-06 µmol/min/mg
